Laboratory results: ChEMBL document CHEMBL1142811, “Design and syntheses of melanocortin subtype-4 receptor agonists. Part 2: discovery of the dihydropyridazinone motif” (Bioorg Med Chem Lett, 2005)

Columns and labels:
Melanocortin receptor 4 [1] = target: T1, Melanocortin receptor 4 (Homo sapiens, UniProt P32245); experiment: Effective concentration at human melanocortin 4 receptor in cAMP release assay; type: functional
Melanocortin receptor 5 [2] = target: T2, Melanocortin receptor 5 (Homo sapiens, UniProt P33032); experiment: Inhibition of [125I]-NDP- alpha-MSH binding to human melanocortin 5 receptor expressed in CHO cells; type: cell-based
T2 sequence (P33032 whole entry): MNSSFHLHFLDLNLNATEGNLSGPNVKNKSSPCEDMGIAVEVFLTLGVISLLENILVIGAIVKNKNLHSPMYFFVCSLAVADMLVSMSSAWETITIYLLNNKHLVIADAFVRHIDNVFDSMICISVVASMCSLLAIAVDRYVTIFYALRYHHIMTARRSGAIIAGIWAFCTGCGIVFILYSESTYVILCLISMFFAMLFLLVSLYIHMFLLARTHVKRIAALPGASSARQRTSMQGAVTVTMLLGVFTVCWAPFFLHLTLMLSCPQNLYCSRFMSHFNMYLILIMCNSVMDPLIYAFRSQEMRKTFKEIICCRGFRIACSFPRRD

Melanocortin receptor 3 [3] = target: T3, Melanocortin receptor 3 (Homo sapiens, UniProt P41968); experiment: Maximum percentage of cAMP accumulation compared to alpha-MSH at human melanocortin 3 receptor at 10 uM; type: functional
T3 sequence (P41968 whole entry): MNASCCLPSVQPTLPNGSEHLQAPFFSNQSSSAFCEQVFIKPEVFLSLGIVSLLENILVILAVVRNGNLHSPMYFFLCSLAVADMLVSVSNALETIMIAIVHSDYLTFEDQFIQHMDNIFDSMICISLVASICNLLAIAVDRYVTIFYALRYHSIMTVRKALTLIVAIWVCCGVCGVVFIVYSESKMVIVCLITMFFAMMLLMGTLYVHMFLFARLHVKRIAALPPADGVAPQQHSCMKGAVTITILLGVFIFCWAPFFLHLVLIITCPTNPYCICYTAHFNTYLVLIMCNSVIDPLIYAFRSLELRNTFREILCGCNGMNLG

Melanocortin receptor 5 [4] = target: T2, Melanocortin receptor 5; experiment: Maximum percentage of cAMP accumulation compared to alpha-MSH at human melanocortin 5 receptor at 10 uM; type: functional
Melanocortin receptor 3 [5] = target: T3, Melanocortin receptor 3; experiment: Inhibition of [125I]-NDP- alpha-MSH binding to human melanocortin 3 receptor expressed in CHO cells; type: cell-based
Melanocortin receptor 4 [6] = target: T1, Melanocortin receptor 4; experiment: Inhibition of [125I]-NDP- alpha-MSH binding to human melanocortin 4 receptor expressed in CHO cells; type: cell-based
Melanocortin receptor 4 [7] = target: T1, Melanocortin receptor 4; experiment: Maximum percentage of cAMP accumulation relative to alpha-MSH at human melanocortin 4 receptor at 10 uM; type: functional
Melanocortin receptor 3 [8] = target: T3, Melanocortin receptor 3; experiment: Maximum percentage of cAMP accumulation compared to alpha-MSH at human melanocortin 3 receptor; type: functional
Melanocortin receptor 3 [9] = target: T3, Melanocortin receptor 3; experiment: Effective concentration against human melanocortin 3 receptor in cAMP release assay; type: functional
Melanocortin receptor 3 [10] = target: T3, Melanocortin receptor 3; experiment: Inhibition of [125I]-NDP- alpha-MSH binding to human melanocortin 3 receptor expressed in CHO cell at 4 uM; type: cell-based
[11] = target: T4, Melanocyte-stimulating hormone receptor (Homo sapiens, UniProt Q01726); experiment: Inhibition of [125I]-NDP- alpha-MSH binding to human melanocortin 1 receptor
Target sequence in this assay (Q01726 whole entry): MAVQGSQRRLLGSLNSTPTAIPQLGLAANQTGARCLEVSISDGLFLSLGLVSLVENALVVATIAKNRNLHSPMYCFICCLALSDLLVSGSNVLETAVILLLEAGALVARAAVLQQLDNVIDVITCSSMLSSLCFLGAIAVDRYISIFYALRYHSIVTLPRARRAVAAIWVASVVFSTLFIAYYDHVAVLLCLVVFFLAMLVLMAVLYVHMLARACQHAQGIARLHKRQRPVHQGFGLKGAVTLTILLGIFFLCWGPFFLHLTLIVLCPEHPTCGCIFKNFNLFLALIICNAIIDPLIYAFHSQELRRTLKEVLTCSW

Melanocortin receptor 5 [12] = target: T2, Melanocortin receptor 5; experiment: Inhibition of [125I]-NDP- alpha-MSH binding to human melanocortin 5 receptor
Melanocortin receptor 3 [13] = target: T3, Melanocortin receptor 3; experiment: Inhibition of [125I]-NDP- alpha-MSH binding to human melanocortin 3 receptor
Melanocortin receptor 5 [14] = target: T2, Melanocortin receptor 5; experiment: Effective concentration against human melanocortin 5 receptor in cAMP release assay; type: functional
Melanocortin receptor 4 [15] = target: T1, Melanocortin receptor 4; experiment: Inhibition of [125I]-NDP- alpha-MSH binding to human melanocortin 4 receptor
Melanocortin receptor 5 [16] = target: T2, Melanocortin receptor 5; experiment: Maximum percentage of cAMP accumulation compared to alpha-MSH at human melanocortin 5 receptor; type: functional
[17] = target: T4, Melanocyte-stimulating hormone receptor; conditions: 10 uM
Target sequence in this assay (Q01726 whole entry, looked up): as the sequence (Q01726 whole entry) above
Description: Maximum percentage of cAMP accumulation compared to alpha-MSH at human melanocortin 1 receptor at 10 uM

T1 sequence (P32245 whole entry): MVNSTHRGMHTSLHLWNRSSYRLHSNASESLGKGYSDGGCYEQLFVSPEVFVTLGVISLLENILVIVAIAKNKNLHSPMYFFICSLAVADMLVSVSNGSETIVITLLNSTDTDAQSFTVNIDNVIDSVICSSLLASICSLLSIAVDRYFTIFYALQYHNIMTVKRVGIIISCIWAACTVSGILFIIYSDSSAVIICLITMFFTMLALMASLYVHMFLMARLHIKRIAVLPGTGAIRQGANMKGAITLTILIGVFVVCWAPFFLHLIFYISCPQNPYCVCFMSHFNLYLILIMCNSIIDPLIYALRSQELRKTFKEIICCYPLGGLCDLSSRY

Row | Structure (SMILES) | EC50 (Melanocortin receptor 4 [1]) [nM] | IC50 (Melanocortin receptor 5 [2]) [nM] | Max (Melanocortin receptor 3 [3]) [%] | Max (Melanocortin receptor 5 [4]) [%] | IC50 (Melanocortin receptor 3 [5]) [nM] | IC50 (Melanocortin receptor 4 [6]) [nM] | Max (Melanocortin receptor 4 [7]) [%] | Max (Melanocortin receptor 3 [8]) [%] | EC50 (Melanocortin receptor 3 [9]) [nM] | inhibition (Melanocortin receptor 3 [10]) [%] | IC50 [11] [nM] | IC50 (Melanocortin receptor 5 [12]) [nM] | IC50 (Melanocortin receptor 3 [13]) [nM] | EC50 (Melanocortin receptor 5 [14]) [nM] | IC50 (Melanocortin receptor 4 [15]) [nM] | Max (Melanocortin receptor 5 [16]) [%] | Max [17] [%]
1 | COc1ccc(-n2nc(Sc3ccc(Cl)cc3)cc(CC[C@@H](C)NC(=O)[C@H]3CNC[C@@H]3c3ccc(F)cc3)c2=O)cc1 | 110 | 1400 |  | 5 | > 3000 | 70 | 84 | 24 | 2400 |  |  |  |  |  |  |  | 
2 | COc1ccc(-n2nc(Sc3ccc(Cl)cc3)cc(CC[C@@H](C)NC(=O)[C@H]3CCNC[C@@H]3c3ccc(F)cc3)c2=O)cc1 | 110 | 1200 | 45 | 1 |  | 66 | 101 |  |  | 40 |  |  |  |  |  |  | 
3 | COc1ccc(N2N=C(Sc3ccc(Cl)cc3)CC(CC[C@@H](C)NC(=O)[C@H]3CNCC[C@@H]3c3ccc(F)cc3)C2=O)cc1 (stereo in doubt; 26) [listing 2 of 2 here] |  |  | 5 |  |  |  | 67 |  |  |  |  |  |  |  |  | 27 | 12

Next, values leading:

Row | EC50 (Melanocortin receptor 4 [1]) [nM] | IC50 (Melanocortin receptor 5 [2]) [nM] | Max (Melanocortin receptor 3 [3]) [%] | Max (Melanocortin receptor 5 [4]) [%] | IC50 (Melanocortin receptor 3 [5]) [nM] | IC50 (Melanocortin receptor 4 [6]) [nM] | Max (Melanocortin receptor 4 [7]) [%] | Max (Melanocortin receptor 3 [8]) [%] | EC50 (Melanocortin receptor 3 [9]) [nM] | inhibition (Melanocortin receptor 3 [10]) [%] | IC50 [11] [nM] | IC50 (Melanocortin receptor 5 [12]) [nM] | IC50 (Melanocortin receptor 3 [13]) [nM] | EC50 (Melanocortin receptor 5 [14]) [nM] | IC50 (Melanocortin receptor 4 [15]) [nM] | Max (Melanocortin receptor 5 [16]) [%] | Max [17] [%] | Structure (SMILES)
4 | 61 | 840 | 6 | 7 | 940 | 11 | 71 |  |  |  |  |  |  |  |  |  |  | COc1ccc(-n2nc(Sc3ccc(Cl)cc3)cc(CC[C@@H](C)NC(=O)[C@H]3CNCC[C@@H]3c3ccc(F)cc3)c2=O)cc1
5 | 40 |  |  |  |  | 1.5 |  |  |  |  | 230 | 1100 | 420 | 2400 | 1.5 |  |  | COc1ccc(N2N=C(Sc3ccc(Cl)cc3)CC(CC[C@@H](C)NC(=O)[C@H]3CNCC[C@@H]3c3ccc(F)cc3)C2=O)cc1 (stereo in doubt; 26) [listing 1 of 2 here]
